Tests used:
HLA DQ2 molecules = experiment: In vitro binding assays using EBV-transformed B cell lines; parameters: species or system human
naïve human CD4+ T-cells = experiment: T-cell proliferation assay with differentiated dendritic cells and naïve human CD4+ T-cells (tritium incorporation); assay type: cell-based; details: for T-cell epitope discovered: naïve donors, positive if response at least 3 times baseline
Description: Fresh human peripheral blood cells were collected from “naïve” humans, i.e., persons not known to be exposed to or sensitized to Bacillus lentus protease, for determination of antigenic epitopes in protease from Bacillus lentus and human subtilisin. Naïve humans is intended to mean that the individual is not known to have been exposed to or developed a reaction to protease in the past. Peripheral mononuclear blood cells (stored at room temperature, no older than 24 hours) were prepared for use as follows: Approximately 30 mls of a solution of buffy coat preparation from one unit of whole blood was brought to 50 ml with Dulbecco's phosphate buffered solution (DPBS) and split into two tubes. The samples were underlaid with 12.5 ml of room temperature lymphoprep density separation media (Nycomed density 1.077 g/ml). The tubes were centrifuged for thirty minutes at 600 G. The interface of the two phases was collected, pooled and washed in DPBS. The cell density of the resultant solution was measured by hemocytometer. Viability was measured by trypan blue exclusion.
From the resulting solution, a differentiated dendritic cell culture was prepared from the peripheral blood mononuclear cell sample having a density of 10^8 cells per 75 ml culture flask in a solution as follows: • (1) 50 ml of serum free AIM V media (Gibco) was supplemented with a 1:100 dilution beta-mercaptoethanol (Gibco). The flasks were laid flat for two hours at 37° C. in 5% CO2 to allow adherence of monocytes to the flask wall. • (2) Differentiation of the monocyte cells to dendritic cells was as follows: nonadherent cells were removed and the resultant adherent cells (monocytes) combined with 30 ml of AIM V, 800 units/ml of GM-CSF (Endogen) and 500 units/ml of IL-4 (Endogen); the resulting mixture was cultured for 5 days under conditions at 37° C. in 5% CO2. […] Adherent and non-adherent cells were then centrifuged at 600 G for 5 minutes, washed in DPBS and counted. • (4) The prepared dendritic cells were placed into a 96 well round bottom array at 2×10^4/well in 100 microliter total volume of AIM V media.
CD4+ T cells were prepared from frozen aliquots of the peripheral blood cell samples used to prepare the dendritic cells using the human CD4+ Cellect Kit (Biotex) as per the manufacturers instructions with the following modifications: the aliquots were thawed and washed such that approximately […] will be applied per Cellect column; the cells were resuspended in 4 ml DPBS and 1 ml of the Cell reagent from the Cellect Kit, the solution maintained at room temperature for 20 minutes. […] The resultant CD4+ cell solution was centrifuged, resuspended in AIMV media and the density counted. […]

[1] = tested on: T-cells of an individual known to be hypersensitive to Bacillus lentus protease; experiment: T-cell response to peptides in a sample from an individual hypersensitive to Bacillus lentus protease; assay type: cell-based, human
From the text: Peptide E05 represents the region corresponding to 170-173 in protease from Bacillus amyloliquefaciens.
Alanine substitutions were used as substitutions for the purpose of determining the role of any specific residue within the epitope. The legend of FIG. 10 refers to the position of the peptide in which an alanine was substituted, i.e., in peptide E06 (sequence GSISYPARYANAMAV (SEQ ID NO: 210)), G to A=2, S to A=3, I to A=4, S to A=5, Y to A=6, P to A=7, R to A=8, Y to A=9, N to A=10, M to A=11 and V to A=12.

For “70-84: BPN′ peptide of region 70-84, human T cell epitope (GTVAALNNSIGVLGV; UniProt P00782 177-191, looked up, fragment) [Peptide 70-84]”, the “binding to HLA DQ2 molecules” value (HLA DQ2 molecules) was “bound”.

“109-123: BPN′ peptide of region 109-123, human T cell epitope (NGIEWAIANNMDVIN; UniProt P00782 216-230, looked up, fragment) [Peptide 109-123]” was tested, and the “binding to HLA DQ2 molecules” value (HLA DQ2 molecules) was “bound”.

“A01: peptide derived from Humicola insolens cellulase (Carezyme); legend: A02, residues 70-84 (PGGVAYSCADQTPWA) [Peptide A01]” was tested, and the T-cell epitope discovered (naïve human CD4+ T-cells) was “T-cell epitopes were discovered”.

For “A12: peptide derived from Thermomyces lanuginosa lipase (Lipolase); legend: B02, residues 83-100 (GDVTGFLALDNTNKLIVL) [Peptide A12]”, the T-cell epitope discovered (naïve human CD4+ T-cells) was “T-cell epitopes were discovered”.

With “F06: peptide of Humicola insolens endogluconase, residues 37-51 (SEQ ID NO: 223) (CGWAKKAPVNQPVFS) [Peptide F06]” the T-cell epitope discovered (naïve human CD4+ T-cells) was “T-cell epitopes were discovered”.

With “GSISYPARYANAMAV [Peptide E05, Bacillus lentus protease peptide with region corresponding to 170-173 of B. amyloliquefaciens protease]” the “T-cell response to peptide” value [1] was “highly responsive” and the “immunogenic response (T-cell proliferation) to peptide” value (naïve human CD4+ T-cells; naïve blood samples from unsensitized individuals, response relative to baseline) was “marked allergenic response”.
